Patent US20050209157A1, “Short bioactive peptides and methods for their use” (priority 2001, published 2005)
Where “and” joins values, the source holds several entries; their conditions need not be identical. Equal values may be shown once. Read-outs that look alike come from different tables or passages of the source. No end group written: not given here.

Experiments:
P. aeruginosa H374 [1] = format: cell-based, Pseudomonas aeruginosa; details: for MIC P. aeruginosa H374: Table 9, in µg/mL
[2] = test system: Pseudomonas aeruginosa H187; format: cell-based; details: in µg/mL
[3] = test system: Pseudomonas aeruginosa 100609; format: cell-based; details: Table 9; in µg/mL
[4] = test system: Pseudomonas aeruginosa 105663; format: cell-based; details: Table 9; in µg/mL
[5] = test system: Pseudomonas aeruginosa ATCC 9027; test: Antimicrobial assay I, MIC by OD measurement; format: cell-based; details: 37° C. for 24 hours, absorbance 620 nm
[6] = test system: Staphylococcus aureus ATCC 6538; test: Antimicrobial assay I, MIC by OD measurement; format: cell-based; details: 37° C. for 24 hours, absorbance 620 nm
[7] = test system: yeast (Saccharomyces cerevisiae); test: Antimicrobial assay I, yeast assay in RPMI 1640; format: cell-based; details: RPMI 1640 media
S. aureus (MRSA) = format: cell-based, Staphylococcus aureus; details: mean of three; 16 to 20 hours at 35° C.
S. epidermidis C621 = format: cell-based, Staphylococcus epidermidis; details: mean of three; 16 to 20 hours at 35° C.
S. pyogenes M76 = test: Antimicrobial assays II, NCCLS broth microdilution MIC; format: cell-based, Streptococcus pyogenes; details: mean of three; 16 to 20 hours at 35° C.
S. pyogenes ATCC19615 = test: as above; format: cell-based, Streptococcus pyogenes; details: mean of three, in µg/mL
S. pneumoniae C718 = test: as above; format: cell-based, Streptococcus pneumoniae; details: mean of three
S. pneumoniae C719 = test: as above; format: cell-based, Streptococcus pneumoniae; details: mean of three, in µg/mL
E. coli UB1005 = format: cell-based, Escherichia coli; details: mean of three; 16 to 20 hours at 35° C.; in µg/mL
S. typhimurium 14028S = format: cell-based, Salmonella typhimurium; details: mean of three; 16 to 20 hours at 35° C.; in µg/mL
BMKC = test: Anti-cancer assay, MTT, LD50; format: cell-based; details: BMKC cloned melanoma line, 24 hours with peptide
Text: (§1) Numbers are LD50 values (μg/mL).

H1299 = test: Anti-cancer assay, MTT, LD50; format: cell-based; details: 24 hours with peptide, lung large cell carcinoma
Text: as §1

HeLaS3 = test: Anti-cancer assay, MTT, LD50; format: cell-based; details: 24 hours with peptide, cervical carcinoma
Text: as §1

MCF7 = test: Anti-cancer assay, MTT, LD50; format: cell-based; details: MCF7 breast adenocarcinoma line, MTT, 24 hours with peptide
Text: as §1

PC3 = test: Anti-cancer assay, MTT, LD50; format: cell-based; details: 24 hours with peptide, prostate adenocarcinoma
Text: as §1

SW480 = test: Anti-cancer assay, MTT, LD50; format: cell-based; details: SW480 colon adenocarcinoma line, 24 hours with peptide
Text: as §1

in vitro [8] = format: cell-based, human; details: human, human red blood cells, pH 7, hemolytic assay, concentration at 50% hemolysis, 1 hour at 37° C.; read-out: LD50
P. aeruginosa H374 [9] = format: cell-based, Pseudomonas aeruginosa; details: for FIC Index: 0.5 or less = synergy
Summary of the method: (§2)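 FIC index, computed as 0.25 plus the ratio of combination to single-agent antibiotic MIC, defines synergy when 0.5 or below. Peptide fixed at one quarter MIC while chloramphenicol or nalidixic acid was serially diluted two-fold; antibiotic-alone MICs served as baselines.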

P. aeruginosa H774 = format: cell-based, Pseudomonas aeruginosa; details: P. aeruginosa H744; nalidixic acid + peptide at ¼ MIC; 0.5 or less = synergy
Summary of the method: as §2

P. aeruginosa = format: cell-based, Pseudomonas aeruginosa; details: P. aeruginosa H744; MIC of nalidixic acid with peptide at ¼ MIC
Summary of the method: as §2

WI38 = details: MTT, 24 hours with peptide; normal fibroblast line
in vitro [10] = details: human, WI38 normal lung fibroblast cells, LD50 WI38, WI38 normal lung fibroblast line, MTT, 24 hours with peptide
[11] = test system: Candida glabrata ATCC15126; test: Antimicrobial assays II, NCCLS broth microdilution MIC; format: cell-based; details: Table 8; in µg/mL

| Substance | MIC P. aeruginosa H374 (P. aeruginosa H374 [1]) | MIC P. aeruginosa H187 ([2]; Table 9) | MIC P. aeruginosa Tb 100609 [3] | MIC P. aeruginosa Tb 105663 [4] | paerug9027 (MIC) [5] | staph6538 (MIC) [6] | yeast (MIC or MFC) [7] | S. aureus (MRSA) MIC (S. aureus (MRSA)) | S. epidermidis C621 MIC (S. epidermidis C621) | S. pyogenes M76 MIC (S. pyogenes M76) | S. pyogenes MIC (S. pyogenes ATCC19615) | S. pneumoniae MIC (S. pneumoniae C718) | S. pneumoniae MIC (S. pneumoniae C719) | LD50 BMKC (BMKC) | H1299 LD50 (H1299) | HeLaS3 LD50 (HeLaS3) | LD50 MCF7 (MCF7) | PC3 LD50 (PC3) | MIC P. aeruginosa H187 ([2]; Table 8) | MIC C. glabrata ATCC15126 [11] | other results |
| --- | --- | --- | --- | --- | --- | --- | --- | --- | --- | --- | --- | --- | --- | --- | --- | --- | --- | --- | --- | --- | --- |
| FALALKALKKALKKLKKALKKAL-NH2 [P2 (2)] | 16 | 16 | 32 | 16 |  |  |  |  |  |  |  |  |  |  |  |  |  |  |  |  |  |
| FAKKLKKLAKLAKKL-NH2 [P46] |  |  |  |  | 5 µg/mL | 10 µg/mL | 50 µg/mL | 64 µg/mL | 8 µg/mL | 8 µg/mL | 16 | 64 µg/mL | 128 | 150 µg/mL | 290 µg/mL | 280 µg/mL | 300 µg/mL | 280 µg/mL |  |  | E. coli UB1005 MIC (E. coli UB1005): 8 and 4; S. typhimurium 14028S MIC (S. typhimurium 14028S): 16 and 8; P. aeruginosa H374 MIC (P. aeruginosa H374 [1]; mean of three, 16 to 20 hours at 35° C.): 4 µg/mL; LD50 SW480 (SW480): 160 µg/mL; HC50 at 1 h (in vitro [8]): 900 µg/mL; MIC Cm-comb. (P. aeruginosa H374 [9]; MIC of chloramphenicol with peptide at ¼ MIC): 8 µg/mL; MIC Nal-comb. (P. aeruginosa H374 [9]; MIC of nalidixic acid with peptide at ¼ MIC): 2500 µg/mL; FIC Index (P. aeruginosa H374 [9]; chloramphenicol + peptide at ¼ MIC): 0.75; FIC Index (P. aeruginosa H374 [9]; nalidixic acid + peptide at ¼ MIC, FIC=0.25+MIC comb/MIC alone): 0.75; FIC Index (P. aeruginosa H774): 1.25; MIC Nal-comb. (P. aeruginosa): 624 µg/mL; WI38 LD50 (WI38): 200 µg/mL; CC50 at 24 h (in vitro [10]): 200 µg/mL |
| MPKWKVFKKIEKVGRNIRNGIVKAGPAIAVLGEAKALG-NH2 [P12 (5)] | 8 | 16 | 8 | 8 |  |  |  |  |  |  |  |  |  |  |  |  |  |  | 16 | 128 |  |
| LPKWKVFKKIEKVGRNIRNGIVKAGPAIAVLGEAKALG-NH2 [P306 (150)] | 8 | 16 | 16 | 32 |  |  |  |  |  |  |  |  |  |  |  |  |  |  | 16 | >128 |  |
| FAKKLAKKLKKLAKKLAK-OH [P71 (47)] | 4 | 8 | 16 | 16 |  |  |  |  |  |  |  |  |  |  |  |  |  |  | 8 | 32 |  |
| FALALKALKKALKKLKKALKKAL-NH2 [P2, reference compound] |  |  |  |  | 100 µg/mL | 25 µg/mL | 25 µg/mL | 32 µg/mL | 8 µg/mL | 4 µg/mL | 8 | 128 µg/mL | 32 | 128 µg/mL | 140 µg/mL | 50 µg/mL | 23 µg/mL | 44 µg/mL |  |  | LD50 SW480 (SW480): 46 µg/mL; HC50 at 1 h (in vitro [8]): 10 µg/mL; WI38 LD50 (WI38): 66 µg/mL; CC50 at 24 h (in vitro [10]): 66 µg/mL |
